Starred links: 1 amine or outer side, 2 acyl side, 3 side chain; linkers in the order of their positions; H or OH if unused. Non-standard residues stand in square brackets, D forms with d. Residues, ends and D or L forms follow the SMILES beside them. *: point of attachment. X2 = CO[C@H]([C@@H](C)C(=O)[*:2])[C@@H]1C[C@@H]2C[C@@H]2N1[*:1]; Dolaproine = CO[C@@H]([C@@H]1CCCN1)[C@@H](C)C(=O)O; Abu(3S-N3) = C[C@H](N=[N+]=[N-])[C@H](N)C(=O)O; X6 = C/C(=N\OCC(=O)*)c1ccc(C[C@H](N)C(=O)O)cc1; Dil = CC[C@H](C)[C@H](NC)[C@@H](CC(=O)O)OC; X5 = CCCCCCCCCCN(C)[C@H](C(=O)*)C(C)C; Phe(2-F) = N[C@@H](Cc1ccccc1F)C(=O)O; NMeV = CN[C@H](C(=O)O)C(C)C
Assays:
SK-OV-3 = assay: Cytotoxicity against human SK-OV-3 cells assessed as reduction in cell viability incubated for 96 hrs by PrestoBlue cell viability assay; assay type: functional, cell-based; conditions: SK-OV-3, 96 h
HL-60 = assay: Cytotoxicity against P-gp negative human HL-60 cells assessed as reduction inc cell viability; assay type: functional, cell-based
HeLa = assay: Cytotoxicity against human HeLa cells assessed as cell growth inhibition; assay type: functional
HeLa S3 = assay: Cytotoxicity against human HeLa S3 cells assessed as reduction in cell viability incubated for 4 days by propidium iodide staining based fluorescence analysis; assay type: functional; conditions: HeLa S3, 96 h
[1] = system: Panel NCI-60 (60 carcinoma cell lines); assay: Cytotoxicity against human Panel NCI-60 (60 carcinoma cell lines) assessed as cell growth inhibition; assay type: functional, cell-based
Tubulin [2] = assay: Binding affinity to tubulin (unknown origin); assay type: protein-complex assay, Homo sapiens
HT-29 [3] = assay: Anticancer activity against human HT-29 assessed as reduction in cell viability incubated for 96 hrs by microculture tetrazolium assay; assay type: functional, cell-based; conditions: HT-29, 96 h
H3396 [4] = assay: Cytotoxicity against human H3396 cells assessed as cell growth inhibition; assay type: functional, cell-based
L1210 = assay: Cytotoxicity against mouse L1210 cells assessed as cell growth inhibition measured after 24 hrs; assay type: functional, cell-based; conditions: L1210, 24 h
Tubulin [5] = assay: Inhibition of tubulin (unknown origin) polymerization assessed as reduction in microtubule formation measured for 20 mins by spectrophotometric analysis; assay type: protein-complex assay, Homo sapiens
SK-BR-3 = assay: Cytotoxicity against human SK-BR-3 cells assessed as cell growth inhibition incubated for 72 hrs by CellTiter-Glo assay; assay type: functional
ASPC1 = assay: Cytotoxicity against human ASPC1 cells assessed as cell growth inhibition incubated for 72 hrs by CellTiter-Glo assay; assay type: functional
HCT-116 [6] = assay: Cytotoxicity against human HCT-116 cells assessed as cell growth inhibition measured after 96 hrs by resazurin dye based assay; assay type: functional
H3396 [7] = assay: Cytotoxicity against human H3396 cells assessed as cell growth inhibition measured after 96 hrs by resazurin dye based assay; assay type: functional
KARPAS-299 = assay: Cytotoxicity against human KARPAS-299 cells assessed as reduction in cell viability incubated for 5 days by Presto blue dye based assay; assay type: functional; conditions: KARPAS-299, 120 h
[8] = Toxicity in mouse assessed as maximum tolerated dose; conditions: in vivo
HCT-116 [9] = assay: Cytotoxicity against human HCT-116 cells assessed as reduction inc cell viability; assay type: functional, cell-based
HT-29 [10] = assay: Cytotoxicity against human HT-29 cells assessed as cell growth inhibition; assay type: functional, cell-based
A498 = assay: Anticancer activity against human A498 cells assessed as growth inhibition; assay type: functional
[11] = Toxicity in dog assessed as maximum tolerated dose; design: species or system Canis lupus familiaris; conditions: in vivo
NCI-H446 [12] = assay: Anti-tumor activity against human NCI-H446 cells xenografted in SCID mouse assessed as increase in median survival time at 450 microg/kg, iv (Rvb= 42 day); assay type: functional; conditions: dose 450 µg/kg
NCI-H82 = assay: Anticancer activity against human NCI-H82 cells assessed as cell growth inhibition; assay type: functional, cell-based
NCI-H446 [13] = assay: Anticancer activity against human NCI-H446 cells assessed as cell growth inhibition; assay type: functional, cell-based
leukaemia cell line = assay: Cytotoxicity against human leukaemia cell line assessed as cell growth inhibition; assay type: functional
SF-295 = assay: Anticancer activity against human SF-295 cells assessed as growth inhibition; assay type: functional
Tubulin [14] = assay: Inhibition of tubulin (unknown origin) polymerization assessed as reduction in microtubule formation preincubated for 15 mins followed by GTP addition and measured for 20 mins by spectrophotometric analysis; assay type: protein-complex assay, Homo sapiens
SK-MEL-5 = assay: Anticancer activity against human SK-MEL-5 cells assessed as growth inhibition; assay type: functional
NCI-H446 [15] = assay: Anti-tumor activity against human NCI-H446 cells xenografted in SCID mouse assessed as log increase in apoptosis at 450 microg/kg, iv measured after 96 hrs; assay type: functional; conditions: dose 450 µg/kg
NCI-H69 = assay: Anticancer activity against human NCI-H69 cells assessed as cell growth inhibition; assay type: functional, cell-based
NCI-H510A = assay: Anticancer activity against human NCI-H510A cells assessed as cell growth inhibition; assay type: functional, cell-based
KM-20L2 = assay: Anticancer activity against human KM-20L2 cells assessed as growth inhibition; assay type: functional
NCI-H460 = assay: Anticancer activity against human NCI-H460 cells assessed as growth inhibition; assay type: functional
OVCAR-3 = assay: Anticancer activity against human OVCAR-3 cells assessed as growth inhibition; assay type: functional

C#COCC(O)C(O)C(O)C(O)CN(C)[C@H](C(=O)N[C@H](C(=O)N(C)[C@@H]([C@@H](C)CC)[C@@H](CC(=O)N1CCC[C@H]1[C@H](OC)[C@@H](C)C(=O)N[C@@H](Cc1ccccc1)c1nccs1)OC)C(C)C)C(C)C (stereo not given in full)
IC50 (SK-OV-3): 1 nM

CCCCCCCCCCN(C)[C@H](C(=O)N[C@H](C(=O)N(C)[C@@H]([C@@H](C)CC)[C@@H](CC(=O)N1CCC[C@H]1[C@H](OC)[C@@H](C)C(=O)N[C@@H](Cc1ccccc1)C(=O)O)OC)C(C)C)C(C)C (X5-V[Dil][Dolaproine]F-OH)
IC50 (HL-60): 1.8 nM

CC[C@H](C)[C@@H]([C@@H](CC(=O)NC[C@H]1O[C@H](C(=O)N[C@@H](Cc2ccccc2)c2nccs2)[C@@H](OC)[C@@H]1OC)OC)N(C)C(=O)[C@@H](NC(=O)[C@H](C(C)C)N(C)C)C(C)C
GI50 (HeLa): 0.01 nM

CC[C@H](C)[C@@H]([C@@H](CC(=O)N1CCC[C@H]1[C@H](OC)[C@@H](C)C(=O)O[C@H](CO)Cc1ccccc1)OC)N(C)C(=O)[C@@H](NC(=O)[C@H](C(C)C)N(C)C)[C@@H](C)CC
IC50 (HeLa S3): 2.1 nM

CC[C@H](C)[C@@H]([C@@H](CC(=O)N1CCC[C@H]1[C@H](OC)[C@@H](C)C(=O)NCCc1ccccn1)OC)N(C)C(=O)[C@@H](NC(=O)[C@H](C(C)C)N(C)C)C(C)C
GI50 [1]: 0.85 nM | IC50 (Tubulin [2]): 1.2 nM

CC[C@H](C)[C@@H]([C@@H](CC(=O)N1CCC[C@H]1[C@H](OC)[C@@H](C)C(=O)N[C@@H](Cc1ccccc1)c1nccs1)OC)N(C)C(=O)[C@@H](NC(=O)[C@H](C(C)C)N(C)CC(O)C(O)C(O)C(O)CN=[N+]=[N-])C(C)C (stereo not given in full)
IC50 (SK-OV-3): < 1 nM

CC[C@H](C)[C@H]1[C@H](OC)CC(=O)N2CCC[C@H]2[C@H](OC)[C@@H](C)C(=O)N[C@@H](Cc2ccccc2)c2nc(cs2)C(=O)O[C@H](C)[C@H](N(C)C)C(=O)N[C@@H](C(C)C)C(=O)N1C
IC50 (HT-29 [3]): 58.5 nM

CC[C@H](C)[C@@H]([C@@H](CC(=O)N1CCC[C@H]1[C@H](OC)[C@@H](C)C(=O)N[C@@H](Cc1ccccc1)C(=O)OC)OC)N(C)C(=O)[C@@H](NC(=O)[C@@H](NC)C(C)C)C(C)C (H-[NMeV]V[Dil][Dolaproine]F-OMe)
IC50 (H3396 [4]): < 0.001 nM

CC[C@H](C)[C@@H]([C@@H](CC(=O)N1CCC[C@H]1[C@@H](OC)[C@@H](C)C(=O)N[C@@H](Cc1ccccc1)c1nccs1)OC)N(C)C(=O)[C@@H](NC(=O)[C@H](C(C)C)N(C)C)C(C)C
IC50 (L1210): > 10000 nM

CC[C@H](C)[C@@H]([C@@H](CC(=O)OC(C)(C)C)OC)N(C)C(=O)[C@@H](NC(=O)[C@H](C(C)C)N(C)C)C(C)C
IC50 (Tubulin [5]): 4.2 nM

CC[C@H](C)[C@@H]([C@@H](CC(=O)N1[C@H]2C[C@H]2C[C@H]1[C@H](OC)[C@@H](C)C(=O)N[C@@H](Cc1ccccc1F)C(=O)O)OC)N(C)C(=O)[C@@H](NC(=O)[C@@H](NC)C(C)C)C(C)C (H-[NMeV]V[Dil][X2][Phe(2-F)]-OH)
GI50 (SK-BR-3): 47.7 nM | GI50 (ASPC1): 1750 nM

CC[C@H](C)[C@@H]([C@@H](CC(=O)N1CCC[C@H]1[C@H](OC)[C@@H](C)C(=O)N[C@@H](Cc1ccccc1)c1nn[nH]n1)OC)N(C)C(=O)[C@@H](NC(=O)[C@H](C(C)C)N(C)C)C(C)C
GI50 (HCT-116 [6]): 6 nM | GI50 (H3396 [7]): 0.09 nM

CC[C@H](C)[C@@H]([C@@H](CC(=O)N1CCC[C@H]1[C@H](OC)[C@@H](C)C(=O)OC[C@@H](O)Cc1ccccc1)OC)N(C)C(=O)[C@@H](NC(=O)[C@H](C(C)C)N(C)C)[C@@H](C)CC
IC50 (HeLa S3): 2.9 nM

CCOP(=O)(OCC)[C@H](Cc1ccccc1)NC(=O)[C@H](C)[C@@H](OC)[C@@H]1CCCN1C(=O)C[C@@H](OC)[C@H]([C@@H](C)CC)N(C)C(=O)[C@@H](NC(=O)[C@H](C(C)C)N(C)C)C(C)C
GI50 (HCT-116 [6]): 6 nM | GI50 (H3396 [7]): 0.09 nM

CC[C@H](C)[C@@H]([C@@H](CC(=O)N1CCC[C@H]1[C@H](OC)[C@@H](C)C(=O)N[C@@H](Cc1ccccc1)C(=O)O)OC)N(C)C(=O)[C@@H](NC(=O)[C@H](C(C)C)N(C)C(=O)CO/N=C(\C)c1ccc(C[C@H](N)C(=O)O)cc1)[C@H](C)N=[N+]=[N-] (X6-[NMeV][Abu(3S-N3)][Dil][Dolaproine]F-OH)
IC50 (KARPAS-299): 217 nM

CC[C@H](C)[C@@H]([C@@H](CC(=O)N1CCC[C@H]1/C=C(\C)C(=O)N[C@@H](Cc1ccccc1)c1nccs1)OC)N(C)C(=O)[C@@H](NC(=O)[C@H](C(C)C)N(C)C)C(C)C
IC50 (L1210): > 10000 nM

CC[C@H](C)[C@@H]([C@@H](CC(=O)N1CCC[C@H]1[C@H](OC)[C@@H](C)C(=O)N[C@@H](Cc1ccccc1)C(=O)O)OC)N(C)C(=O)[C@@H](NC(=O)[C@@H](NC)C(C)C)C(C)C (HELM PEPTIDE1{[meV].V.[CC[C@H](C)[C@@H]([C@@H](CC(=O)[*:2])OC)N(C)[*:1]].[CO[C@H]([C@@H](C)C(=O)[*:2])[C@@H]1CCCN1[*:1]].F}$$$$V2.0)
MTD [8]: 1 mg/kg | IC50 (HL-60): 137 nM | IC50 (H3396 [4]): 105 nM | IC50 (HCT-116 [9]): 2880 nM | IC50 (HT-29 [10]): 10 nM

CC[C@H](C)[C@@H]([C@@H](CC(=O)N1CCC[C@H]1[C@H](OC)[C@@H](C)C(=O)N[C@@H](Cc1ccccc1)c1nccs1)OC)N(C)C(=O)[C@@H](NC(=O)[C@H](C(C)C)N(C)C)C(C)C [DOLASTATIN-10]
GI50 (A498): 0.033 nM | IC50 (Tubulin [5]): 1200 nM | MTD [11]: 0.02 mg/kg | MTD [8]: 0.036 mg/kg | MST (NCI-H446 [12]): 91 days | GI50 [1]: 0.01 nM | IC50 (NCI-H82): 0.032 nM | IC50 (NCI-H446 [13]): 0.032 nM | ED50 (leukaemia cell line): 4.6 10^-5 ug/ml | GI50 (SF-295): 0.01 nM | IC50 (Tubulin [14]): 3 nM | GI50 (SK-MEL-5): 0.009 nM | Activity (NCI-H446 [15]): 5.2 | IC50 (NCI-H69): 0.032 nM | IC50 (NCI-H510A): 0.032 nM | GI50 (KM-20L2): 0.006 nM | IC50 (L1210): 0.9 nM | GI50 (NCI-H460): 0.004 nM | GI50 (OVCAR-3): 0.001 nM

CC[C@H](C)[C@@H]([C@@H](CC(=O)N1CCC[C@H]1[C@H](OC)[C@@H](C)C(=O)N[C@@H](Cc1ccccc1)C(N)=O)OC)N(C)C(=O)[C@@H](NC(=O)[C@@H](NC)C(C)C)[C@H](C)N=[N+]=[N-] (H-[NMeV][Abu(3S-N3)][Dil][Dolaproine]F-NH2)
IC50 (KARPAS-299): 0.6 nM

Source: ChEMBL document CHEMBL5150014, “Discovery and Development of Dolastatin 10-Derived Antibody Drug Conjugate Anticancer Drugs” (J Nat Prod, 2022)
